Our source for the IC50 values is patent US20250215029A1 (Recludix Pharma, Inc., priority 2022, published 2025).

Test [1] addresses T1, Recombinant STAT6 protein (STAT6 (W123-T658)) (Homo sapiens, UniProt P42226).
T1 construct: Recombinant STAT6 protein (STAT6 (W123-T658))
T1 sequence (P42226 123-658): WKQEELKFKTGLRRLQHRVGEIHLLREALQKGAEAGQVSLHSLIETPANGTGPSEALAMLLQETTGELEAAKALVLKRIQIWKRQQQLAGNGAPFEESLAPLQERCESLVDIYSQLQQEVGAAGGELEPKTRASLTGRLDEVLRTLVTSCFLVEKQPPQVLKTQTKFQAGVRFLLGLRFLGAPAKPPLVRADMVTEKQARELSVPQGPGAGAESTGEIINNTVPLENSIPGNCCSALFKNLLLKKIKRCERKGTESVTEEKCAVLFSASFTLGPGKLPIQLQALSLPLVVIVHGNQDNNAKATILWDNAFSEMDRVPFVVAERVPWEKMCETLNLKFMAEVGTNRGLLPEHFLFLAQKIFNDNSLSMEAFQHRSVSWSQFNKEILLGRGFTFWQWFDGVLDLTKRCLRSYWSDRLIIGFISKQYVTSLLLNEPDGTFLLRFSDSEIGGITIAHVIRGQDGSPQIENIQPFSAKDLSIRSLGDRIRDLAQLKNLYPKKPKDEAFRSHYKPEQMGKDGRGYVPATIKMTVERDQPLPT
The test can be described thus: STAT6 Fluorescence Polarization (FP) Assay. The format is binding. The settings on record: STAT6 (W123-T658) 250 nM, 45-minute incubation, read-out: STAT6 (FP assay IC50 class). The essentials:
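Fluorescence polarization (mP) read-out: 250 nM STAT6 (W123-T658) plus 2 nM 5-FAM phosphotyrosine peptide, 45 min, room temperature, 1% DMSO. IC50 by nonlinear fit of mP against log compound concentration.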
(Polarisation of emitted light reports the rotation of a fluorescent probe.)

The target of test [2] is T2, Recombinant STAT3 protein (STAT3 (G127-I722)) (Homo sapiens, UniProt P40763).
T2 construct: Recombinant STAT3 protein (STAT3 (G127-I722))
The test can be described thus: STAT3 Fluorescence Polarization (FP) Assay. The conditions noted are these: STAT3 (G127-I722) 25 nM, probe 5-FAM-GpYLPQTV-NH2 2 nM, 45-minute incubation; read-out: STAT3 (FP assay IC50 class). The format is binding. The gist of the method:
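Displacement of a 2 nM 5-FAM-labelled pY peptide (GpYLPQTV) from 25 nM recombinant STAT3 (G127-I722) was monitored by fluorescence polarization. Incubation lasted 45 min at room temperature in pH 7.4 HEPES buffer containing 1% DMSO.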

[3] abbreviates: probe 5-FAM-ApYKPFQDLI-NH2 2 nM.

Where two headings read alike, the source gives them in different places. Where only a bound is given, the exact number is not on record here.

T2 sequence (P40763 127-722): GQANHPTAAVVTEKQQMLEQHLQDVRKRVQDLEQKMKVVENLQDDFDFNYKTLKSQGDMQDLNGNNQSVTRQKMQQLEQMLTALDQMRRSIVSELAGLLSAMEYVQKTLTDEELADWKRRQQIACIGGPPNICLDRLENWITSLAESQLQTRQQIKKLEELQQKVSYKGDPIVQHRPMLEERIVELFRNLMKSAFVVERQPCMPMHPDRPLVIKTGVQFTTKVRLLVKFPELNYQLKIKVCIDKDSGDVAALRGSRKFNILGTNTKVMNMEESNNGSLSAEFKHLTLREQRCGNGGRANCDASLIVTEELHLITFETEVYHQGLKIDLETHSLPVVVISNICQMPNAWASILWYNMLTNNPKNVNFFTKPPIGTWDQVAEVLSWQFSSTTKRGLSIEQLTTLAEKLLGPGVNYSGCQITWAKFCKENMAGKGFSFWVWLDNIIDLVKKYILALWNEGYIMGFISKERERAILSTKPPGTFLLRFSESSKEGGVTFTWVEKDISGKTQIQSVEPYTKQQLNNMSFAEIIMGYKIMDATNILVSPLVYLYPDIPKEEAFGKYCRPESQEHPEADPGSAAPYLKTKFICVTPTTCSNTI

For orientation: IC50 means the concentration needed to halve the response being measured. For `N#C[C@@H]1[C@@H](c2cncc(Cl)c2)CN(C(=O)[C@@H]2CC[C@@H]3CCCC[C@H](NC(=O)c4cc5cc([C@H](F)P(=O)(O)O)ccc5s4)C(=O)N32)C12CC2` (single isomer, unassigned) [Compound 845], the IC50 in test [1] (probe 5-FAM-Ap[…]-NH2 2 nM) was no more than 300 nM; in test [2], 1000 to 10000 nM.

Regarding `N#C[C@@H]1[C@@H](c2cncc(Cl)c2)CN(C(=O)[C@@H]2CC[C@@H]3CCCC[C@H](NC(=O)c4cc5cc(C(F)P(=O)(O)O)ccc5s4)C(=O)N32)C12CC2` (single isomer, unassigned) [Compound 846], the IC50 in test [1] (probe 5-FAM-Ap[…]-NH2 2 nM) was 300 to 3000 nM; in test [2], 1000 to 10000 nM.

As to `COc1cncc([C@@H]2CN(C(=O)[C@@H]3CC[C@@H]4CCC[C@H](NC(=O)c5cc6cc([C@H](F)P(=O)(O)O)ccc6s5)C(=O)N43)C3(CC3)[C@H]2C#N)c1` (single isomer, unassigned) [Compound 847], the IC50 in test [1] (setting [3]) is 300 to 3000 nM; in test [2], 1000 to 10000 nM.

Regarding `COc1cncc([C@H]2CN(C(=O)[C@@H]3CC[C@@H]4CCCC[C@H](NC(=O)c5cc6cc([C@H](F)P(=O)(O)O)ccc6s5)C(=O)N43)C3(CC3)[C@@H]2C#N)c1` (single isomer, unassigned) [Compound 848], the IC50 in test [1] (probe 5-FAM-Ap[…]-NH2 2 nM) was 300 to 3000 nM; in test [2], 1000 to 10000 nM.

In the case of `O=C(N[C@H]1CCC[C@H]2CC[C@@H](C(=O)N3CC(c4cncnc4N4CCOCC4)C3)N2C1=O)c1cc2cc([C@H](F)P(=O)(O)O)ccc2s1` (single isomer, unassigned) [Compound 857], the IC50 in test [1] (probe 5-FAM-Ap[…]-NH2 2 nM) was 3000 to 30000 nM; in test [2], less than 100 nM.

As to `O=C(N[C@H]1CCC[C@H]2CC[C@@H](C(=O)N3CC(c4cncnc4N4CCOCC4)C3)N2C1=O)c1cc2cc([C@@H](F)P(=O)(O)O)ccc2s1` (single isomer, unassigned) [Compound 861], the IC50 is 3000 to 30000 nM in test [1] (probe 5-FAM-Ap[…]-NH2 2 nM) and less than 100 nM in test [2].

Take `COC[C@@H]1CCN1c1ncncc1C1CN(C(=O)[C@@H]2CC[C@@H]3CCC[C@H](NC(=O)c4cc5cc([C@H](F)P(=O)(O)O)ccc5s4)C(=O)N32)C1` (single isomer, unassigned) [Compound 862]: the IC50 in test [1] (probe 5-FAM-Ap[…]-NH2 2 nM) is 3000 to 30000 nM; in test [2], less than 100 nM.

As to `N#C[C@@H]1CN(C(=O)[C@@H]2CC[C@@H]3CCCC[C@H](NC(=O)c4cc5cc([C@H](F)P(=O)(O)O)ccc5s4)C(=O)N32)C[C@H]1c1cc[nH]c(=O)c1` (single isomer, unassigned) [Compound 872], the figures for the IC50 in test [1] (probe 5-FAM-Ap[…]-NH2 2 nM) and in test [2] were no more than 300 nM and 100 to 1000 nM, respectively.

`N#C[C@H]1CN(C(=O)[C@@H]2CC[C@@H]3CCCC[C@H](NC(=O)c4cc5cc(C(F)(F)P(=O)(O)O)ccc5s4)C(=O)N32)C[C@@H]1c1cc[nH]c(=O)c1` (single isomer, unassigned) [Compound 875]: the IC50 was no more than 300 nM in test [1] (probe 5-FAM-Ap[…]-NH2 2 nM) and 100 to 1000 nM in test [2].

For `Cc1cc(C2CN(C(=O)[C@@H]3CC[C@@H]4CCCC[C@H](NC(=O)c5cc6cc(C(F)(F)P(=O)(O)O)ccc6s5)C(=O)N43)CC2C#N)cc(=O)[nH]1` (single isomer, unassigned) [Compound 876], the IC50 in test [1] (probe 5-FAM-Ap[…]-NH2 2 nM) lay in the range of 300 to 3000 nM; in test [2] it was 1000 to 10000 nM.

As for `N#C[C@H]1CN(C(=O)[C@@H]2CC[C@@H]3CCCC[C@H](NC(=O)c4cc5cc(CP(=O)(O)O)ccc5s4)C(=O)N32)C[C@@H]1c1cc[nH]c(=O)c1` (single isomer, unassigned) [Compound 878], the IC50 in test [1] (probe 5-FAM-Ap[…]-NH2 2 nM) was in the range of 300 to 3000 nM; in test [2], 1000 to 10000 nM.

For `O=C(N[C@H]1CCCC[C@H]2CC[C@@H](C(=O)N3C[C@@H](c4ccccc4)CC34CC4)N2C1=O)c1cc2cc(C(F)(F)P(=O)(O)O)ccc2s1` (single isomer, unassigned) [Compound 889], the IC50 in test [1] (probe 5-FAM-Ap[…]-NH2 2 nM) is no more than 300 nM; in test [2], 1000 to 10000 nM.

Regarding `O=C(N[C@H]1CCCC[C@H]2CC[C@@H](C(=O)N3C[C@@H](c4ccccc4)CC34CC4)N2C1=O)c1cc2cc(C(F)(F)P(=O)(O)O)ccc2s1` (single isomer, unassigned) [Compound 890], the IC50 was no more than 300 nM in test [1] (setting [3]) and 1000 to 10000 nM in test [2].

As for `N#C[C@@H]1[C@@H](c2ccccc2)CN(C(=O)[C@@H]2CC[C@@H]3CCCC[C@H](NC(=O)c4ccc5ccc(C(F)P(=O)(O)O)cc5c4)C(=O)N32)C12CC2` (single isomer, unassigned) [Compound 894], the IC50 in test [1] (probe 5-FAM-Ap[…]-NH2 2 nM) is no more than 300 nM; in test [2], 1000 to 10000 nM.

Take `CC(c1ccc2ccc(C(=O)N[C@H]3CCCC[C@H]4CC[C@@H](C(=O)N5C[C@@H](c6ccccc6)CC56CC6)N4C3=O)cc2c1)P(=O)(O)O` (single isomer, unassigned) [Compound 897]: the IC50 was 3000 to 30000 nM in test [1] (probe 5-FAM-Ap[…]-NH2 2 nM) and 1000 to 10000 nM in test [2].

On to `O=C(N[C@H]1CCCC[C@H]2CC[C@@H](C(=O)N3C[C@@H](c4cccnc4)CC34CC4)N2C1=O)c1cc2cc([C@H](F)P(=O)(O)O)ccc2s1` (single isomer, unassigned) [Compound 908], for which the IC50 in test [1] (probe 5-FAM-Ap[…]-NH2 2 nM) was no more than 300 nM; in test [2], 1000 to 10000 nM.

On to `O=C(N[C@H]1CCCC[C@H]2CC[C@@H](C(=O)N3C[C@H](c4cccnc4)CC34CC4)N2C1=O)c1cc2cc([C@@H](F)P(=O)(O)O)ccc2s1` (single isomer, unassigned) [Compound 909], for which the IC50 in test [1] (probe 5-FAM-Ap[…]-NH2 2 nM) is no more than 300 nM; in test [2], 1000 to 10000 nM.

`O=C(N[C@H]1CCCC[C@H]2CC[C@@H](C(=O)N3C[C@H](c4cccnc4)CC34CC4)N2C1=O)c1cc2cc([C@H](F)P(=O)(O)O)ccc2s1` (single isomer, unassigned) [Compound 911]: the results for the IC50 in test [1] (probe 5-FAM-Ap[…]-NH2 2 nM) and in test [2] were no more than 300 nM and 1000 to 10000 nM, respectively.

`N#C[C@H]1[C@H](c2ccccc2)CN(C(=O)[C@@H]2CC[C@@H]3CCC[C@H](NC(=O)c4cc5cc([C@H](F)P(=O)(O)O)ccc5s4)C(=O)N32)C12CC2` (single isomer, unassigned) [Compound 916]: the IC50 is no more than 300 nM in test [1] (probe 5-FAM-Ap[…]-NH2 2 nM) and 1000 to 10000 nM in test [2].

In the case of `O=C(N[C@H]1CCC[C@H]2CC[C@@H](C(=O)N3C[C@@H](c4cccnc4)CC34CC4)N2C1=O)c1cc2cc([C@@H](F)P(=O)(O)O)ccc2s1` (single isomer, unassigned) [Compound 917], the figures for the IC50 in test [1] (probe 5-FAM-Ap[…]-NH2 2 nM) and in test [2] were no more than 300 nM and 1000 to 10000 nM, respectively.

As for `N#C[C@@H]1[C@@H](c2ccccc2)CN(C(=O)[C@@H]2CC[C@@H]3CCC[C@H](NC(=O)c4cc5cc([C@H](F)P(=O)(O)O)ccc5s4)C(=O)N32)C12CC2` (single isomer, unassigned) [Compound 919], the IC50 was no more than 300 nM in test [1] (probe 5-FAM-Ap[…]-NH2 2 nM) and 1000 to 10000 nM in test [2].

Consider `N#C[C@@H]1[C@@H](c2ccccc2)CN(C(=O)[C@@H]2CC[C@@H]3CCC[C@H](NC(=O)c4cc5cc([C@@H](F)P(=O)(O)O)ccc5s4)C(=O)N32)C12CC2` (single isomer, unassigned) [Compound 920], for which the IC50 was no more than 300 nM in test [1] (probe 5-FAM-Ap[…]-NH2 2 nM) and 1000 to 10000 nM in test [2].

For the compound `N#C[C@@H]1[C@@H](c2ccccc2)CN(C(=O)[C@@H]2CC[C@@H]3CCCC[C@H](NC(=O)c4cc5cc([C@@H](F)P(=O)(O)O)ccc5s4)C(=O)N32)C12CC2` (single isomer, unassigned) [Compound 923], the figures for the IC50 in test [1] (probe 5-FAM-Ap[…]-NH2 2 nM) and in test [2] were no more than 300 nM and 1000 to 10000 nM, respectively.

Regarding `N#C[C@H]1[C@H](c2ccccc2)CN(C(=O)[C@@H]2CC[C@@H]3CCCC[C@H](NC(=O)c4cc5cc([C@H](F)P(=O)(O)O)ccc5s4)C(=O)N32)C12CC2` (single isomer, unassigned) [Compound 924], the IC50 was no more than 300 nM in test [1] (probe 5-FAM-Ap[…]-NH2 2 nM) and 1000 to 10000 nM in test [2].

`N#C[C@@H]1[C@@H](c2ccccc2)CN(C(=O)[C@@H]2CC[C@@H]3C[C@@H](N4CCC4)CC[C@H](NC(=O)c4cc5cc([C@H](F)P(=O)(O)O)ccc5s4)C(=O)N32)C12CC2` (single isomer, unassigned) [Compound 934]: the IC50 in test [1] (probe 5-FAM-Ap[…]-NH2 2 nM) is no more than 300 nM; in test [2], 1000 to 10000 nM.

Regarding `N#C[C@@H]1[C@@H](c2ccccc2)CN(C(=O)[C@@H]2CC[C@@H]3C[C@@H](N4CCC4)CC[C@H](NC(=O)c4cc5cc([C@@H](F)P(=O)(O)O)ccc5s4)C(=O)N32)C12CC2` (single isomer, unassigned) [Compound 935], the IC50 in test [1] (probe 5-FAM-Ap[…]-NH2 2 nM) was no more than 300 nM; in test [2], 1000 to 10000 nM.

As for `N#C[C@H]1[C@H](c2ccccc2)CN(C(=O)[C@@H]2CC[C@@H]3C[C@@H](N4CCC4)CC[C@H](NC(=O)c4cc5cc([C@H](F)P(=O)(O)O)ccc5s4)C(=O)N32)C12CC2` (single isomer, unassigned) [Compound 936], the IC50 is no more than 300 nM in test [1] (probe 5-FAM-Ap[…]-NH2 2 nM) and 1000 to 10000 nM in test [2].
